The text below walks through data of patent US11079398B2, “Method for measurement of peptidic degradation products of a proteolytic cascade in blood samples” (ATTOQUANT DIAGNOSTICS GMBH, priority 2012, dated 2021).

Test [1] has as its system renin-angiotensin system (RAS). The test is described as follows: RSSE-Fingerprinting: blood incubated at 37° C. with added agents, LC-MS/MS quantification of angiotensin peptides. It is filed as biochemical, human. Conditions: for Ang 1-8 steady state equilibrium level compared to control / Ang 1-10 steady state equilibrium level compared to control: heparinised blood, agent added prior to incubation at 37° C., 2 h or 4 h. The method, then:
Blood samples were collected and anti-coagulated with standardised heparin tubes (BD). As indicated in FIGS. 3A-3C, plasma separation has been done for the respective samples before the incubation to reach steady state equilibrium.
Following plasma separation by centrifugation at 3000 rcf for 10 minutes at 4° C., […] of plasma was applied onto an activated and equilibrated SEP-PAK™ C18 cartridge. Sample matrix components were removed by washing three times with 1 ml water. Bound analytes were then eluted with 1 ml of methanol. Eluates were evaporated to dryness and reconstituted in 10% acetonitril/90% water supplemented with 0.1% formic acid followed by subjection to LC-MS/MS analysis.
A vacuum manifold has been used for sample processing. • 1. Activation: EtOH abs. • 2. Equilibration: 2×1 ml H2O • 3. Loading: 0.2-1 ml stabilised plasma • 4. Washing: 3×1 ml H2O • 5. Elution: 1 ml MeOH Quantification and Signal Integration
MRM chromatograms were integrated using Analyst 1.5.1 software provided by Applied Biosystems. The threshold for the quantification limit was set at a signal-to-noise ratio of 10. Integration signals not reaching this ratio were set to zero. Analyte signals were related to internal standard signals and concentration was calculated from initially spiked amounts of internal standards.

For the next test, the target named is ACE2 (Homo sapiens, UniProt Q9BYF1). To be noted: artificial matrix, vast excess of substrates; cited from earlier work.
Sequence of ACE2 (Q9BYF1 18-805): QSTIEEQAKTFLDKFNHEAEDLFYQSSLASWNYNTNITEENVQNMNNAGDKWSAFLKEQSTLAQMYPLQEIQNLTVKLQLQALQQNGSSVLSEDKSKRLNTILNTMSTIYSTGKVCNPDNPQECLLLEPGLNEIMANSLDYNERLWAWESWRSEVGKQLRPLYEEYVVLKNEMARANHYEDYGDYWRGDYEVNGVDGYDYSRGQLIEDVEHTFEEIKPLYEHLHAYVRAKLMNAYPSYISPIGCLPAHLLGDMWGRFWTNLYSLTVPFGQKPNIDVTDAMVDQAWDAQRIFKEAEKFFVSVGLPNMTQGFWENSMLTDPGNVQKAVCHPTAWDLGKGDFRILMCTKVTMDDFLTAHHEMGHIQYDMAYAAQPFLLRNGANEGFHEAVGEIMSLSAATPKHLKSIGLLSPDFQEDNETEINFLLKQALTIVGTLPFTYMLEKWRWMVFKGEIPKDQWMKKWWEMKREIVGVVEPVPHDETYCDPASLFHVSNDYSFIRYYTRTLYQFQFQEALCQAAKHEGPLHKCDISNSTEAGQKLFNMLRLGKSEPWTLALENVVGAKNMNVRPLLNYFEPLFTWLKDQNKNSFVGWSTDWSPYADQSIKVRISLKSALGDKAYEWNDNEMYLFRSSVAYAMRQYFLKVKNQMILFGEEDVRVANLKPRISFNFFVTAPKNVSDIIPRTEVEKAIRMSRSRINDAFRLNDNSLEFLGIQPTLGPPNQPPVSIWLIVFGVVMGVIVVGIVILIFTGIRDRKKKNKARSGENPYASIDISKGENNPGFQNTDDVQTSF

As for `CC(C)C[C@@H](N)[C@H](O)C(=O)N[C@H](C(=O)N[C@H](C(=O)N[C@@H](CC(=O)O)C(=O)O)C(C)C)C(C)C` [Amastatin], the “steady state equilibrium Ang 1-10 level in the presence of ACE2 (ACE2 mediated Ang 1-9 production)” value in test [1] (FIG. 2C1/2C3, 2 h incubation) was “further increases”. In test [1], the “Ang 1-8 steady state equilibrium level compared to control” value was “massively increase”. For the molecule `C[C@H](CS)C(=O)N1CCC[C@H]1C(=O)O` [Captopril], in test [1], the “Ang 1-8 steady state equilibrium level compared to control” value is “decreased” and the “Ang 1-10 steady state equilibrium level compared to control” value is reported as “increased”. As for `NCCCC[C@H](N[C@@H](CCc1ccccc1)C(=O)O)C(=O)N1CCC[C@H]1C(=O)O` [Lisinopril], in test [1], the “Ang 1-8 steady state equilibrium level compared to control” value was “decreased” and the “Ang 1-10 steady state equilibrium level compared to control” value was “increased”. For “ACE2: recombinant soluble human ACE2 produced by Apeiron Biologics”, in test [1] (5 μg/ml enzyme added prior to incubation), the “shift of RSSE-Fingerprint” value is “shifted as expected”. With “angiotensin II (DRVYIHPF; Angiotensin-2; UniProt P01019 25-32, looked up) [Ang 1-8, angiotensin peptide, ACE2 substrate]”, in the test with ACE2, the “maximal ACE2 conversion rate for Ang 1-8 to Ang 1-7 relative to conversion rate for Ang 1-10 to Ang 1-9” value was 65 times.
